The results in this text go back to PMC11218446, “Antibacterial efficacy and membrane mechanism of action of the Serratia-derived non-ionic lipopeptide, serrawettin W2-FL10” (Microbiology Spectrum, 2024).

Values after ≈ are worked out from the molar mass of the structure shown. Values joined by “and” are separate entries in the source; they are usually repeats but may differ in a detail not shown here. Equal values may be shown once. Read-outs that look alike come from different tables or passages of the source.

For one experiment, the system named is E. faecalis ATCC 7080. The experiment is described as follows: Broth microdilution assay (OD 600 nm). The class given is cell-based, Enterococcus faecalis. The procedure: Serrawettin W2-FL10 (95% pure) was tested for antibacterial activity using a broth microdilution susceptibility assay ([6]), with melittin included as an antibiotic control. The serrawettin W2-FL10 was prepared in 70% MeCN to 1.00 mg/mL, from which aliquots were prepared using 70% MeCN to a concentration of 50 µg/mL or 500 µg/mL, while aliquots of melittin were prepared using analytical quality H2O to 128 µg/mL. Fifty microliters of the respective W2-FL10 aliquots or melittin were dispensed into a clear 96-well plate and a microdilution (in 70% MeCN for W2-FL10 or analytical quality H2O for melittin) was performed within the plate. The plate was air-dried to remove the solvent and placed in a desiccator with chloroform for 20 min for sterilization.
All the cultures (inoculated into 5 mL MHB, or 5 mL TSB for Listeria and Enterococcus strains) were incubated at 37°C to reach an optical density (OD) of 0.4 at 600 nm (∼10^7 CFU/mL). A 1:20 dilution of the test strain (final concentration of ∼10^5 CFU/mL) was prepared and 100 µL was dispensed into each well (final concentration of W2-FL10 at 1.5–125 µg/mL and melittin at 2–32 µg/mL). Sterile broth and the OD-adjusted inoculum were included as positive controls, while sterile broth (no inoculum) was included as a negative control. The 96-well plate was incubated for 18 h at 37°C. All the tests were performed in triplicate, with independent duplicates. Following incubation, the absorbance was measured using a microtiter plate reader at 600 nm. The 50% growth inhibition concentration (IC50) was determined using GraphPad Prism version 5 for Windows [GraphPad Software, San Diego, USA (www.graphpad.com)]. A sigmodal curve with variable slope was fitted to each set of dose-repose data according to Rautenbach et al. ([17]) using equation (1):
(1) Y=bottom+(top−bottom)/1+10^logIC50×Activity slope
The “top” and “bottom” are the maximum and minimum inhibition responses, respectively, for a particular set of dose-response data, while the activity slope is related to the Hill slope of a sigmoidal binding curve ([16]). […] The MIC value was determined for each set of dose-response data as the lowest concentration, resulting in ≥90% inhibition of the target cell growth. In addition to the MIC and IC50 inhibition parameters, an inhibition concentration factor (ICF), was calculated as outlined in Rautenbach et al. ([17]). The ICF is indicative of the concentration increase from the highest concentration where no activity is observed to the MIC of a compound.

Another experiment relates to S. aureus ATCC 25923. The experiment is classed as cell-based, Staphylococcus aureus. The following applies: for ICF / IC50 ± SE / MIC ± SE: resazurin. From the text:
Based on the broth microdilution assay results for W2-FL10 and melittin, the S. aureus ATCC 25923 (reference), S. aureus RN4220 (laboratory; MSSA), or methicillin-resistant S. aureus Xen 30 (clinical; MRSA) strains were selected for further antibacterial studies. Resazurin (also referred to as Alamar Blue) is a blue, non-fluorescent dye that can be reduced to resorufin (a pink, fluorescent compound) by metabolically active cells. The dye can thus be used as a quantitative indicator of cell viability ([52]). Therefore, a broth microdilution assay coupled with resazurin [prepared to a stock solution of 0.3 mg/mL in PBS; ([53])] was used to determine the influence of cations (Mg^2+ and Ca^2+), commercial LTA of S. aureus and DOPG on the potency of W2-FL10 against S. aureus ATCC 25923, S. aureus RN4220 and MRSA Xen 30 as described by Wu et al. ([54]).
For investigating the influence of cations on the antibacterial potency of W2-FL10, a clear 96-well plate was prepared with W2-FL10 and air dried as described in the “Antibacterial activity: broth microdilution assay” section. The S. aureus strains were inoculated into MHB or CA-MHB, grown to mid-log phase (OD600 of 0.5–0.6), and diluted to OD600 of 0.4. A 1:20 dilution of the test strain (final concentration of ∼10^5 CFU/mL) was prepared and 100 µL was dispensed into each well (final concentration of W2-FL10 at 1.56 to 25 µg/mL). Sterile broth (i.e., MHB or CA-MHB) and the OD-adjusted inoculum were included in the assay as a positive control, while sterile broth (i.e., MHB or CA-MHB) was included as a sterility control. The plate was incubated for 24 h at 37°C.
Similarly, the possible interaction and binding of LTA of S. aureus and DOPG (both at 1 mg/mL in 10% EtOH) with the lipopeptide W2-FL10 was investigated ([54]). Briefly, a clear 96-well plate was prepared with W2-FL10 and air dried as described in the “Antibacterial activity: broth microdilution assay” section. Thereafter, 10 µL of LTA from S. aureus or DOPG was dispensed into the respective wells. The S. aureus strains were grown to mid-log phase in MHB (OD600 of 0.5–0.6) and diluted to OD600 of 0.4. A 1:20 dilution of test strain (final concentration of ∼10^5 CFU/mL) was prepared, 100 µL was dispensed into each well (final concentration of W2-FL10 at 3.13 to 100 µg/mL), and the plate was incubated for 24 h at 37°C. Sterile broth, the OD-adjusted inoculum, and the respective LTA or DOPG were included in the assay as a positive control, while sterile broth and LTA or DOPG were included as a sterility control.
After incubation of both plates, 10 µL of resazurin (0.3 mg/mL) was added to each well and the plate was incubated at 37°C for 1 h. Fluorometric readings of the experimental plates were conducted using a Tecan Spark 10M Multimode Microplate Reader at 560 nm excitation wavelength and 590 nm emission wavelength. For all resazurin assays, the percentage inhibition was calculated as described by van Rensburg et al. ([53]). All experiments were performed in triplicate, with independent biological duplicates. […] Dose-response curves (nonlinear regression using equation 1) were processed as described by Rautenbach et al. ([17]) (also see description above), and IC50 values were deduced from the best-fit sigmoidal curves (R^2 ≥ 0.98). Statistical analyses were done by comparing W2-FL10 IC50, in the presence of Ca^2+ and Mg^2+, in the presence of DOPG, and in the presence of LTA toward the control condition each of the three S. aureus strains using one-way analysis of variance (ANOVA) with Bonferroni’s post hoc test.
(Alamar Blue is a resazurin reagent that responds to reducing activity.)

In the case of `CCCCCCCC1CC(=O)N[C@H](CC(C)C)C(=O)N[C@@H](CO)C(=O)N[C@@H]([C@@H](C)O)C(=O)N[C@H](Cc2ccccc2)C(=O)N[C@@H](CC(C)C)C(=O)O1` (stereo partly shown) [W2-FL10, serrawettin W2-FL10], the “IC50 ± SD” value in the experiment with E. faecalis ATCC 7080 (50% growth inhibition, sigmoidal curve fit, n = 3) was 3.2 ± 0.3 (3) µg/mL. In the experiment on E. faecalis ATCC 7080 (LC50 (CHO)/IC50), this compound came in with a Selectivity index of 9.1. For the same compound, the MIC in the experiment on E. faecalis ATCC 7080 (≥90% growth inhibition, OD 600 nm, TSB, 18 h 37°C) was 6.3 μg/mL and 6.3 (8.5) μg/mL. The “increase in the IC50 in the presence of DOPG” value with S. aureus ATCC 25923 (DOPG 100 µg/mL vs control, P < 0.001) was “twofold”. The ICF in the experiment with S. aureus ATCC 25923 (Ca2+ and Mg2+ (CA-MHB)) came to 2.2; in the experiment on S. aureus ATCC 25923 (Control (MHB)), 4.3; in the experiment with S. aureus ATCC 25923 (DOPG 100 µg/mL), 6.3; in the experiment with S. aureus ATCC 25923 (LTA 100 µg/mL), 6.3. Besides, the “IC50 ± SE” value in the experiment on S. aureus ATCC 25923 (Ca2+ and Mg2+ (CA-MHB), n = 4) was found to be 8.4 µg/mL (≈ 11.5 µM); in the experiment on S. aureus ATCC 25923 (Control (MHB), n = 4), 10.6 µg/mL (≈ 14.5 µM); in the experiment with S. aureus ATCC 25923 (DOPG 100 µg/mL, n = 4), 22.5 µg/mL (≈ 30.7 µM); in the experiment with S. aureus ATCC 25923 (LTA 100 µg/mL, n = 4) it was 16.6 µg/mL (≈ 22.7 µM). For the same compound, the “MIC ± SE” value came to 12.5 ± 0.0 µg/mL (≈ 17.1 µM) against S. aureus ATCC 25923 (Ca2+ and Mg2+ (CA-MHB), n = 4); 21.9 ± 3.1 µg/mL (≈ 29.9 µM) against S. aureus ATCC 25923 (Control (MHB), 24 h 37°C, n = 4); 56.3 ± 15.7 µg/mL (≈ 76.9 µM) against S. aureus ATCC 25923 (DOPG 100 µg/mL, n = 4); 41.7 ± 8.3 µg/mL (≈ 57 µM) in the experiment with S. aureus ATCC 25923 (LTA of S. aureus 100 µg/mL, n = 3).

As a reminder, the MIC is the lowest concentration that inhibits growth of the organism. Read a low MIC as a more susceptible organism.
